“Also recorded” adds a separate entry of the source. Where no end group is shown, it is not given here.

The test system of one test is Th2 cells. The test is described as follows: T cell in vitro culture (Th2 differentiation), Il5/Il13 qPCR. The settings on record: Th2 cells cultured with or without NMU 1 μg/ml. The class given is cell-based, mouse. How it is done:
(§1) Quantitative real-time PCR. RNA was isolated using RNeasy Plus Mini Kit (Qiagen) and reverse transcribed to cDNA with iScript cDNA Synthesis Kit (Bio-Rad). Gene expression was analyzed by quantitative real-time PCR on a ViiA7 System (Thermo Fisher Scientific) using TaqMan Fast Advanced Master Mix (Thermo Fisher Scientific) with the following primer/probe sets: IL-5 (Mm00439646_m1), IL-13 (Mm00434204_m1), IL-17RB (Mm00444709_m1), Nmur1 (Mm04207994 m1), Nmur2 (Mm00600704_m1), and β-Actin (Applied Biosystems). Expression values were calculated relative to β-Actin detected in the same sample by duplex qPCR.
T cell in vitro culture. CD4^+ T cells were isolated as described previously^4 and sorted for naive T cells (CD4^+ CD62L^+ CD44^low) on a FACS Aria. Naive T cells were cultured in the presence of plate-bound anti-CD3 (1 μg/ml; Bio X Cell) and anti-CD28 (1 μg/ml; Bio X Cell) antibodies. […]
Quantitative real-time PCR. […] Gene expression was analyzed by quantitative real-time PCR on a ViiA7 System (Thermo Fisher Scientific) using TaqMan Fast Advanced Master Mix (Thermo Fisher Scientific) with the following primer/probe sets: Il5 (Mm00439646_m1), Il13 (Mm00434204_m1), Il17rb (Mm00444709_m1), Nmur1 (Mm04207994_m1), Nmur2 (Mm00600704_m1), Nmu (Mm00479868_m1) and Actb (Applied Biosystems). Expression values were calculated relative to Actb detected in the same sample by duplex qPCR. […]
A general note: Real-time PCR tracks product formation cycle by cycle.

Test [1] has as its system ILCs sorted from the lungs of naive mice. Description: ILC in vitro culture: Il5/Il13 mRNA (qPCR) and IL-5/IL-13 in supernatant (LegendPlex). The class given is cell-based, mouse. As for the experimental part:
Fluorescence-activated cell sorting of innate lymphoid cells. After dissociation, single cell suspensions were incubated with CD90.2 MicroBeads (Miltenyi Biotec) on ice and enriched for CD90.2^+ cells by magnetic separation using LS columns according to the manufacturer's protocol. CD90.2^+ lung cells were then stained on ice with antibodies for sorting. ILCs were defined as 7AAD^− CD45^+ CD90.2^+ CD127^+ Lineage (CD11b, CD11c, CD19, NK1.1, CD3ε, CD4, CD8a, TCRβ, TCRγδ)^− cells and sorted on a BD FACS Aria (BD Biosciences).
ILC in vitro culture. For in vitro experiments 5,000 ILCs/well were cultured in a 96 well round bottom plate with 20 ng/ml IL-7 (R&D Systems), 200 ng/ml IL-33 (BioLegend) or 200 ng/ml IL-25 (R&D Systems) with or without 1 μg/ml Neuromedin U (US Biological). In some cases purified CD90.2^+ lung cells were first labeled with CellTrace Violet (Thermo Fisher Scientific), then sorted as described above, and cultured for 3 days under the indicated conditions.
as §1
Cytokine quantification. Cytokine concentrations in BAL fluid, lung and supernatant of in vitro ILC cultures were analyzed by the LegendPlex Mouse Th Cytokine Panel (13-plex) (BioLegend) according to the manufacturer's instructions and analyzed on a FACS Calibur (BD Biosciences).
Fluorescence-activated cell sorting of innate lymphoid cells. After dissociation, single cell suspensions were incubated with CD90.2 MicroBeads (Miltenyi Biotec) on ice and enriched for CD90.2^+ cells by magnetic separation using LS columns according to the manufacturer's protocol. CD90.2^− lung cells were then stained on ice with antibodies for sorting. ILCs were defined as 7AAD^− CD45^+ CD90.2^+ CD127^+ Lineage (CD11b, CD 11c, CD19, NK1.1, CD3ε, CD4, CD8a, TCRβ, TCRγδ)^− cells and sorted on a BD FACS Aria (BD Biosciences).
ILC in vitro culture. For in vitro experiments 5,000 ILCs/well were cultured in a 96 well round bottom plate with 20 ng/ml IL-7 (R&D Systems), 200 ng/ml IL-25 (R&D Systems) or 20 ng/ml, 2 ng/ml or 0.2 ng/ml IL-33 (BioLegend) with or without 1 μg/ml Neuromedin U (US Biological). In some cases purified CD90.2^+ lung cells were first labeled with CellTrace Violet (Thermo Fisher Scientific), then sorted as described above, and cultured for 3 days under the indicated conditions.
as §1, with “Il5” for “IL-5”, “Il13” for “IL-13”, “Il17rb” for “IL-17RB”, “(Mm04207994_m1),” for “(Mm04207994 m1),”, “(Mm00600704_m1), Nmu (Mm00479868_m1)” for “(Mm00600704_m1),”, “Actb” for “β-Actin”

For “Neuromedin U (FRVDEEFQSPFASQSRGYFLFRPRN-NH2; listed as Homo sapiens) [NMU, neuropeptide ligand of Nmur1 (US Biological)]”, the “Il5 and Il13 expression in Th2 cells” value with Th2 cells is reported as “not observed; also recorded: similar; also recorded: did not affect; also recorded: does not alter”. Moreover, in test [1] (Example 1: ILCs in vitro, IL-33 200 ng/ml with NMU 1 μg/ml vs IL-33 alone), the “Il5 and Il13 levels, NMU in combination with IL-33” value is reported as “did not significantly alter; also recorded: neither amplifies”. Besides, the “IL-33-induced IL-5 and IL-13 secretion with NMU” value in test [1] (Example 2: ILCs in vitro, IL-33 20, 2 or 0.2 ng/ml with NMU 1 μg/ml, LegendPlex) was “enhanced”. Besides, the “Il5 and Il13 expression in ILCs cultured in vitro” value in test [1] (IL-7 20 ng/ml, IL-25 200 ng/ml, IL-33, NMU 1 μg/ml, mRNA by qPCR (protein by LegendPlex)) was “modest upregulation; also recorded: far lower than those observed in response to IL-25 and IL-33; also recorded: only mildly upregulated”. The “increase of IL-5 and IL-13 protein levels in response to IL-25” value in test [1] (ILCs in vitro, IL-25 in conjunction with NMU vs IL-25 alone, LegendPlex) is “at least 8 fold”. The “increase of Il5 and Il13 mRNA levels in response to IL-25” value in test [1] (ILCs in vitro, IL-25 in conjunction with NMU vs IL-25 alone, qPCR) is reported as “at least 3.6 fold”.

Source of the values: patent publication US12161694B2, “Methods and compositions for regulating innate lymphoid cell inflammatory responses” (The Broad Institute, Inc., priority 2017, dated 2024).
